Values of other authors as cited in paper PMC11511053, “Characterization of Kunitz-Domain Anticoagulation Peptides Derived from Acinetobacter baumannii Exotoxin Protein F6W77” (Toxins, 2024).

System: Target
Settings: Table 1, column Ref; ref PN2KPI [25], RVV inhibitor II [40], Simukunin [43], EnKT1 [48], SjKI-1 [22], Schixator [50], SmKI-1 [49], joannsin [44], KPI [45], BF9 [29], Fasxiator [42], Amblyomin-X [27], TAP [46], Bicolin [47]; cited from earlier work
From the text: Table 1 Natural Kunitz-type anticoagulant peptides from different organisms. | column: Target

TAP: Kunitz-type anticoagulant peptide from tick (YNRLCIKPRDWIDECDSNEGGERAYFRNGKGGCDSFWICPEDHTGADYYSSYRDCFNACI; UniProt P17726 1-60, looked up)
Target: FXa
